ChEMBL document CHEMBL1131944, “Phospholipase A2-like catalytic antibody” (Bioorg Med Chem Lett, 1999)

What was measured:
13C-1F6 = assay: Michaelis-Menten Kinetic rate constant in the hydrolysis by 13C-1F6 was determined.; assay type: ADME
[1] = The catalytic rate constant in the hydrolysis by 13C-1F6 was determined by Michaelis-Menten Kinetics.; assay type: ADME
[2] = Compound was tested for the inhibition of antibody-catalyzed hydrolysis.

SMILES: CCCCCCCCCC(=O)OCC(COP(=O)([O-])OCC[N+](C)(C)C)OC(=O)CCCCCCC (racemic) [ESTER OF PHOSPHOLIPID]
- Km (13C-1F6): 71 µM
- k cat [1]: 0.00017 s⁻¹

SMILES: CCCCCCCCCCP(=O)(O)OC(COCCCCCCCCCC(=O)OC)COP(=O)([O-])OCC[N+](C)(C)C (stereo not drawn) [ESTER OF PHOSPHOLIPID]
- Ki [2]: 10 µM
